Reference: a compilation of properties of binary mixtures (doi:10.1016/j.molliq.2017.06.029)

Assay: xn = mol fraction of the nth substance listed
Details: 100 kPa

OCc1ccco1 + CC(=O)[O-].CC[n+]1ccn(C)c1
speed of sound [m/s]
Details	298.15 K	303.15 K	308.15 K	313.15 K	318.15 K
x2 = 0	1447	1431	1413	1394	1375
x2 = 0.0572	1487	1471	1452	1430	–
x2 = 0.1058	1522	1506	1487	1465	1433
x2 = 0.1534	1548	1532	–	1490	–
x2 = 0.2087	1573	1557	1540	1519	–
x2 = 0.3068	–	–	1577	–	1534
x2 = 0.408	1637	1623	1609	1595	1578
x2 = 0.5063	–	–	1633	1620	1606
x2 = 0.5513	1670	1656	1643	1629	–
x2 = 0.6031	1680	1666	–	–	1627
x2 = 0.7053	1696	1683	–	1657	–
x2 = 0.8045	1711	–	1685	1673	1660
x2 = 0.8441	1716	1704	1691	1678	1666
x2 = 0.902	1723	–	1699	1686	1674

CC(=O)[O-].CC[n+]1ccn(C)c1 + OCc1ccco1
x1 = 1
Details	speed of sound [m/s]
298.15 K	1735
303.15 K	1722
308.15 K	1710
313.15 K	1698
318.15 K	1686
